According to patent US20240208992A1, “MACROCYCLES AS CFTR MODULATORS” (Idorsia Pharmaceuticals Ltd, priority 2021, published 2024):

Biological target: human F508del-CFTR (Homo sapiens, UniProt P13569, DEL508-508)
Test: F508del-CFTR cell surface expression (corrector activity), DiscoveRx ß-galactosidase complementation chemiluminescence assay in recombinant U2OS cell line;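 further: U2OS cells co-expressing ProLink-tagged F508del-CFTR and a membrane-anchored enzyme acceptor, where more surface CFTR restores β-galactosidase activity measured by chemiluminescence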
Details: U2OS cell line, 16h compound incubation; for EC50: EC50, F508del-CFTR cell surface expression, geomean values; for Emax: U2OS, in relation to the Emax of the corrector lumacaftor (=100%), arithmetic mean values

Chain of human F508del-CFTR (P13569 with tags, fused parts or gaps DEL508-508): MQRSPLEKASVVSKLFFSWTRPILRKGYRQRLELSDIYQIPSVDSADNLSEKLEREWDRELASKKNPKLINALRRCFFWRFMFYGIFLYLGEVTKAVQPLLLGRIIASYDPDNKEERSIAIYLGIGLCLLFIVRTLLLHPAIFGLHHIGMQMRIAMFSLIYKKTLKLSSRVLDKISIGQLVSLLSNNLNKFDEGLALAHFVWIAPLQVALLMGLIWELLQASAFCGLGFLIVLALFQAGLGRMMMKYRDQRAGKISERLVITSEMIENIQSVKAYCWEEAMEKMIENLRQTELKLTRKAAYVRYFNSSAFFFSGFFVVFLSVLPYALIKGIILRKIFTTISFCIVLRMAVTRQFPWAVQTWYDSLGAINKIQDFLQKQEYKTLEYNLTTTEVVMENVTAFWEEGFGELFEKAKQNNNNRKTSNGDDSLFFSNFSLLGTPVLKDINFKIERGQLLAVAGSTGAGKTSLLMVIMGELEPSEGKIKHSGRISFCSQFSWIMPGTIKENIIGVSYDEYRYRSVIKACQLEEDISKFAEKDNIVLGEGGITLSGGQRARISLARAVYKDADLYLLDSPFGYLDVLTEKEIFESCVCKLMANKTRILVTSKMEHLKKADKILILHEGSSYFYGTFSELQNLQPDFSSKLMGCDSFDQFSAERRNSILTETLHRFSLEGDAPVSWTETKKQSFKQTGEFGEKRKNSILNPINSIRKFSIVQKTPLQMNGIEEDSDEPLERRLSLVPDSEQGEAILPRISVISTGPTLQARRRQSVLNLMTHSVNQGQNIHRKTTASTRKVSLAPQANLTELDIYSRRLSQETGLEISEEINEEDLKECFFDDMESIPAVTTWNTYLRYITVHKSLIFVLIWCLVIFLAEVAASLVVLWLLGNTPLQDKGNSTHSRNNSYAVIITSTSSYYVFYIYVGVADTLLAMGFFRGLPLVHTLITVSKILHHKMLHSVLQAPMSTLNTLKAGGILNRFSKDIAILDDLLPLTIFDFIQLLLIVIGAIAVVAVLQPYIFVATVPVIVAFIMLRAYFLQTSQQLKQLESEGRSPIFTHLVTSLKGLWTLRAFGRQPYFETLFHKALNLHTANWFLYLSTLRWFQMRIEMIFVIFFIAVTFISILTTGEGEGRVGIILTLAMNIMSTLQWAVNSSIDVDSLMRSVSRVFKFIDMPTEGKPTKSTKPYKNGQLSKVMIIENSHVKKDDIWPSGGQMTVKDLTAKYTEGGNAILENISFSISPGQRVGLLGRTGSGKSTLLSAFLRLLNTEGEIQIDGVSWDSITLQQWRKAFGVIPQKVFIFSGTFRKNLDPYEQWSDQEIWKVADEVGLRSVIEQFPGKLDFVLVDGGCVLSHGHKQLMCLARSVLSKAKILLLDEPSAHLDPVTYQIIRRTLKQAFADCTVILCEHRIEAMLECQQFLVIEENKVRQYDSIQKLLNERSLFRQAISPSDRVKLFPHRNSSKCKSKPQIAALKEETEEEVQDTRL

`COc1cc(OC)c2c(c1)OC[C@@H](Cc1ccccc1)NC(=O)CN(CCC1CCCCC1)C(=O)[C@H](CC(C)C)N(C)C(=O)C[C@@H](C(=O)NCCc1ccc3c(c1)OCCC3)NC2=O` [Example 275, (3R,9S,13S)-3-benzyl-N-(2-(chroman-7-yl)ethyl)-7-(2-cyclohexylethyl)-9-isobutyl-16,18-dimethoxy-10-methyl-5,8,11,15-tetraoxo-2,3,4,5,6,7,8,9,10,11,12,13,14,15-tetradecahydrobenzo[p][1]oxa[4,7,10,14]tetraazacycloheptadecine-13-carboxamide] showed an EC50 of 148 nM and an Emax of 333%.
Molecule `COc1cc(OC)c2c(c1)OC[C@@H](Cc1ccccc1)NC(=O)CN(CCC1CCCCC1)C(=O)[C@H](CC(C)C)N(C)C(=O)C[C@@H](C(=O)NCCc1ccc3c(c1)OCC3)NC2=O` [Example 276, (3R,9S,13S)-3-benzyl-7-(2-cyclohexylethyl)-N-(2-(2,3-dihydrobenzofuran-6-yl)ethyl)-9-isobutyl-16,18-dimethoxy-10-methyl-5,8,11,15-tetraoxo-2,3,4,5,6,7,8,9,10,11,12,13,14,15-tetradecahydrobenzo[p][1]oxa[4,7,10,14]tetraazacycloheptadecine-13-carboxamide] has an EC50 of 91 nM and an Emax of 333%.
Work on `COc1cccc(CCNC(=O)[C@@H]2CC(=O)N(C)[C@@H](CC(C)C)C(=O)N(C)CC(=O)N[C@H](Cc3ccccc3)COc3cccc(F)c3C(=O)N2)c1` [Example 277, (3R,9S,13S)-3-benzyl-16-fluoro-9-isobutyl-N-(3-methoxyphenethyl)-7,10-dimethyl-5,8,11,15-tetraoxo-2,3,4,5,6,7,8,9,10,11,12,13,14,15-tetradecahydrobenzo[p][1]oxa[4,7,10,14]tetraazacycloheptadecine-13-carboxamide] yielded an EC50 of 830 nM and an Emax of 134%.
Molecule `CC(C)C[C@H]1C(=O)N(C)CC(=O)N[C@H](Cc2ccccc2)COc2cccc(F)c2C(=O)N[C@H](C(=O)NCCc2ccc3c(c2)OCO3)CC(=O)N1C` [Example 278, (3R,9S,13S)-N-(2-(benzo[d][1,3]dioxol-5-yl)ethyl)-3-benzyl-16-fluoro-9-isobutyl-7,10-dimethyl-5,8,11,15-tetraoxo-2,3,4,5,6,7,8,9,10,11,12,13,14,15-tetradecahydrobenzo[p][1]oxa[4,7,10,14]tetraazacycloheptadecine-13-carboxamide] has an EC50 of 709 nM and an Emax of 167%.
`CC(C)C[C@H]1C(=O)N(C)CC(=O)N[C@H](Cc2ccccc2)COc2cccc(Cl)c2C(=O)N[C@H](C(=O)NCCc2ccc3c(c2)OCO3)CC(=O)N1C` [Example 279, (3R,9S,13S)-N-(2-(benzo[d][1,3]dioxol-5-yl)ethyl)-3-benzyl-16-chloro-9-isobutyl-7,10-dimethyl-5,8,11,15-tetraoxo-2,3,4,5,6,7,8,9,10,11,12,13,14,15-tetradecahydrobenzo[p][1]oxa[4,7,10,14]tetraazacycloheptadecine-13-carboxamide] was tested, and the EC50 was 643 nM and the Emax was 112%.
`CCOc1cccc2c1C(=O)N[C@H](C(=O)NCCc1cccc(OC)c1)CC(=O)N(C)[C@@H](CC(C)C)C(=O)N1CCCC[C@@H]1C(=O)N[C@H](Cc1ccccc1)CO2` [Example 280, (7S,11S,20R,22aR)-20-benzyl-14-ethoxy-7-isobutyl-N-(3-methoxyphenethyl)-8-methyl-6,9,13,22-tetraoxo-1,3,4,6,7,8,9,10,11,12,13,19,20,21,22,22a-hexadecahydro-2H-benzo[p]pyrido[2,1-f][1]oxa[4,7,10,14]tetraazacycloheptadecine-11-carboxamide] showed an EC50 of 297 nM and an Emax of 188%.
`COc1nccc2c1C(=O)N[C@H](C(=O)NCCc1ccc3c(c1)OCO3)CC(=O)N(C)[C@@H](CC(C)C)C(=O)N(CCC1CCCCC1)CC(=O)N[C@H](Cc1ccccc1)CO2` [Example 281, (3R,9S,13S)-N-(2-(benzo[d][1,3]dioxol-5-yl)ethyl)-3-benzyl-7-(2-cyclohexylethyl)-9-isobutyl-16-methoxy-10-methyl-5,8,11,15-tetraoxo-2,3,4,5,6,7,8,9,10,11,12,13,14,15-tetradecahydropyrido[3,4-p][1]oxa[4,7,10,14]tetraazacycloheptadecine-13-carboxamide] showed an EC50 of 110 nM and an Emax of 361%.
Molecule `COc1cccc(CCNC(=O)[C@@H]2CC(=O)N(C)[C@@H](CC(C)C)C(=O)N(CCC3CCCCC3)CC(=O)N[C@H](Cc3ccccc3)COc3ccnc(OC)c3C(=O)N2)c1` [Example 282, (3R,9S,13S)-3-benzyl-7-(2-cyclohexylethyl)-9-isobutyl-16-methoxy-N-(3-methoxyphenethyl)-10-methyl-5,8,11,15-tetraoxo-2,3,4,5,6,7,8,9,10,11,12,13,14,15-tetradecahydropyrido[3,4-p][1]oxa[4,7,10,14]tetraazacycloheptadecine-13-carboxamide] has an EC50 of 114 nM and an Emax of 360%.
In the case of `CCOc1cccc2c1C(=O)N[C@H](C(=O)NCCc1ccc3c(c1)OCCO3)CC(=O)N(C)[C@@H](CC(C)C)C(=O)C1CCC[C@@H](N1)C(=O)N[C@H](Cc1ccccc1)CO2` [Example 283, (7S,11S,20R,22aR)-20-benzyl-N-(2-(2,3-dihydrobenzo[b][1,4]dioxin-6-yl)ethyl)-14-ethoxy-7-isobutyl-8-methyl-6,9,13,22-tetraoxo-1,3,4,6,7,8,9,10,11,12,13,19,20,21,22,22a-hexadecahydro-2H-benzo[p]pyrido[2,1-f][1]oxa[4,7,10,14]tetraazacycloheptadecine-11-carboxamide], the EC50 is reported as 272 nM and the Emax is reported as 231%.
`COc1cccc2c1C(=O)N[C@H](C(=O)NCCc1ccc3c(c1)OCO3)CC(=O)N(C)[C@@H](CC(C)C)C(=O)N(C[C@H]1CCCCO1)CC(=O)N[C@H](Cc1ccccc1)CO2` [Example 305, (3R,9S,13S)-N-(2-(benzo[d][1,3]dioxol-5-yl)ethyl)-3-benzyl-9-isobutyl-16-methoxy-10-methyl-5,8,11,15-tetraoxo-7-(((R)-tetrahydro-2H-pyran-2-yl)methyl)-2,3,4,5,6,7,8,9,10,11,12,13,14,15-tetradecahydrobenzo[p][1]oxa[4,7,10,14]tetraazacycloheptadecine-13-carboxamide] showed an EC50 of 533 nM and an Emax of 123%.
`COc1cccc2c1C(=O)N[C@H](C(=O)NCCc1ccc3c(c1)OCO3)CC(=O)N(C)[C@@H](CC(C)C)C(=O)N(C[C@@H]1CCCCO1)CC(=O)N[C@H](Cc1ccccc1)CO2` [Example 306, (3R,9S,13S)-N-(2-(benzo[d][1,3]dioxol-5-yl)ethyl)-3-benzyl-9-isobutyl-16-methoxy-10-methyl-5,8,11,15-tetraoxo-7-(((S)-tetrahydro-2H-pyran-2-yl)methyl)-2,3,4,5,6,7,8,9,10,11,12,13,14,15-tetradecahydrobenzo[p][1]oxa[4,7,10,14]tetraazacycloheptadecine-13-carboxamide] showed an EC50 of 923 nM and an Emax of 139%.
Molecule `COc1cccc2c1C(=O)N[C@H](C(=O)NCCc1ccc3c(c1)OCO3)CC(=O)N(C)[C@@H](CC1CCCC1)C(=O)N(C[C@H]1CCCCO1)CC(=O)N[C@H](Cc1ccccc1)CO2` [Example 307, (3R,9S,13S)-N-(2-(benzo[d][1,3]dioxol-5-yl)ethyl)-3-benzyl-9-(cyclopentylmethyl)-16-methoxy-10-methyl-5,8,11,15-tetraoxo-7-(((R)-tetrahydro-2H-pyran-2-yl)methyl)-2,3,4,5,6,7,8,9,10,11,12,13,14,15-tetradecahydrobenzo[p][1]oxa[4,7,10,14]tetraazacycloheptadecine-13-carboxamide] has an EC50 of 423 nM and an Emax of 113%.
With `COc1cccc2c1C(=O)N[C@H](C(=O)NCCc1ccc3c(c1)OCO3)CC(=O)N(C)[C@@H](CC1CCCC1)C(=O)N(C[C@@H]1CCCCO1)CC(=O)N[C@H](Cc1ccccc1)CO2` [Example 308, (3R,9S,13S)-N-(2-(benzo[d][1,3]dioxol-5-yl)ethyl)-3-benzyl-9-(cyclopentylmethyl)-16-methoxy-10-methyl-5,8,11,15-tetraoxo-7-(((S)-tetrahydro-2H-pyran-2-yl)methyl)-2,3,4,5,6,7,8,9,10,11,12,13,14,15-tetradecahydrobenzo[p][1]oxa[4,7,10,14]tetraazacycloheptadecine-13-carboxamide] the EC50 was 469 nM and the Emax was 103%.
`COc1cccc2c1C(=O)N[C@H](C(=O)NCCc1ccc3c(c1)OCO3)CC(=O)N(C)[C@@H](CC1CCCCC1)C(=O)N(C[C@@H]1CCCCO1)CC(=O)N[C@H](Cc1ccccc1)CO2` [Example 309, (3R,9S,13S)-N-(2-(benzo[d][1,3]dioxol-5-yl)ethyl)-3-benzyl-9-(cyclohexylmethyl)-16-methoxy-10-methyl-5,8,11,15-tetraoxo-7-(((S)-tetrahydro-2H-pyran-2-yl)methyl)-2,3,4,5,6,7,8,9,10,11,12,13,14,15-tetradecahydrobenzo[p][1]oxa[4,7,10,14]tetraazacycloheptadecine-13-carboxamide] was tested, and the EC50 was 456 nM and the Emax was 113%.
In the case of `COc1cccc(CCNC(=O)[C@@H]2CC(=O)N(C)[C@@H](CC(C)C)C(=O)N(C[C@H]3CCCCO3)CC(=O)N[C@H](Cc3ccccc3)COc3cccc(OC)c3C(=O)N2)c1` [Example 311, (3R,9S,13S)-3-benzyl-9-isobutyl-16-methoxy-N-(3-methoxyphenethyl)-10-methyl-5,8,11,15-tetraoxo-7-(((R)-tetrahydro-2H-pyran-2-yl)methyl)-2,3,4,5,6,7,8,9,10,11,12,13,14,15-tetradecahydrobenzo[p][1]oxa[4,7,10,14]tetraazacycloheptadecine-13-carboxamide], the EC50 is reported as 454 nM and the Emax is reported as 127%.
For `COc1cccc(CCNC(=O)[C@@H]2CC(=O)N(C)[C@@H](CC(C)C)C(=O)N(C[C@@H]3CCCCO3)CC(=O)N[C@H](Cc3ccccc3)COc3cccc(OC)c3C(=O)N2)c1` [Example 312, (3R,9S,13S)-3-benzyl-9-isobutyl-16-methoxy-N-(3-methoxyphenethyl)-10-methyl-5,8,11,15-tetraoxo-7-(((S)-tetrahydro-2H-pyran-2-yl)methyl)-2,3,4,5,6,7,8,9,10,11,12,13,14,15-tetradecahydrobenzo[p][1]oxa[4,7,10,14]tetraazacycloheptadecine-13-carboxamide], the EC50 was 727 nM and the Emax was 111%.
